Key:
Type in all cases: in vivo
[1] = 5-day oral rat study, pharmacokinetic analysis of plasma exposure
Experimental: All animal experiments were conducted in accordance with the Guiding Principles in the Use of Animals in Toxicology (http://www.toxicology.org/ai/air/air6.asp) and were approved by Abbott's Institutional Animal Care and Use Committee (IACUC). Male Sprague-Dawley rats [Crl:CD®(SD)IGS BR], weighing ~250 g at study initiation were obtained from Charles River Laboratories, Inc. (Wilmington, MA). Rats were housed singly in ventilated, stainless steel, wire-bottom hanging cages and fed non-certified Rodent Chow (Harlan Labs, Madison, WI), and water ad libitum and acclimated for at least 5 days after arrival. Rats were randomly assigned to various treatment groups (3 rats/group) and were dosed once daily by oral gavage with vehicle (0.2% hydroxypropylmethylcellulose at a dose volume of 10 ml/kg) or with 30, 100, or 200 mg/kg of A-998679. All rats were fasted overnight after their last dose, weighed and sacrificed under isoflurane anesthesia. For histopathological evaluation, liver, heart, kidney, spleen, bone (sternum) with marrow, gastrointestinal tract (duodenum with pancreas, jejunum, ileum, cecum, and colon), thymus, and lung were fixed in formalin, routinely processed, and embedded in paraffin. Paraffin sections (4 μm) were stained with hematoxylin and eosin. Liver and small intestine (jejunum) were also flash frozen in liquid nitrogen and stored at −80°C until processing for gene expression profiling. Serum clinical chemistry parameters were quantified using an Aeroset Clinical Chemistry Analyzer (Abbott Laboratories, Abbott Park, IL) and included alanine amino transferase (ALT), aspartate amino transferase (AST), gamma glutamyltransferase (GGT), and alkaline phosphatase (ALP) activities.
Serial blood samples were obtained from a tail vein of each rat 0.5, 1.5, 3, 6, 9, 12, and 24 h after drug administration on the first and last day of dosing. Plasma was separated by centrifugation and stored frozen prior to analysis. A-998679 was separated from the plasma using protein precipitation with acetonitrile. A-998679 and the internal standard were separated from co-extracted contaminants on a 50 × 3 mm Betasil CN column (Thermosystem) with an acetonitrile: 10 mM ammonium acetate mobile phase (35:65, by volume) at a flow rate of 0.4 ml/min at ambient temperature. Concentrations of A-998679 in the plasma extracts were determined by HPLC-MS/MS (API2000; Applied Biosystems). Peak plasma concentrations (Cmax) and the time to peak plasma concentration (Tmax) were read directly from the plasma concentration data for each rat. A-998679 plasma concentration data were submitted to multi-exponential curve fitting using WinNonlin. The area under the plasma concentration-time curve from 0 to t hours (time of the last measurable plasma concentration) after dosing (AUC0-t) was calculated using the linear trapezoidal rule for the plasma concentration-time profiles. The residual area extrapolated to infinity, determined as the final measured plasma concentration (Ct) divided by the terminal elimination rate constant (β), was added to AUC0-t to produce the total area under the curve (AUC0-∞).

[2] = system: Cyp1a1; test: Cyp1a1 mRNA in rat liver after 5 days of dosing (microarray, RT-PCR)
Experimental: (§1) All animal experiments were conducted in accordance with the Guiding Principles in the Use of Animals in Toxicology (http://www.toxicology.org/ai/air/air6.asp) and were approved by Abbott's Institutional Animal Care and Use Committee (IACUC). Male Sprague-Dawley rats [Crl:CD®(SD)IGS BR], weighing ~250 g at study initiation were obtained from Charles River Laboratories, Inc. (Wilmington, MA). Rats were housed singly in ventilated, stainless steel, wire-bottom hanging cages and fed non-certified Rodent Chow (Harlan Labs, Madison, WI), and water ad libitum and acclimated for at least 5 days after arrival. […] Serum clinical chemistry parameters were quantified using an Aeroset Clinical Chemistry Analyzer (Abbott Laboratories, Abbott Park, IL) and included alanine amino transferase (ALT), aspartate amino transferase (AST), gamma glutamyltransferase (GGT), and alkaline phosphatase (ALP) activities.
(§2) Frozen liver or jejunum were immediately added to 4 ml of TRIzol reagent (Invitrogen Life Technologies) and homogenized using a Polytron 300D homogenizer (Brinkman Instruments, Westbury, NY). […] Nucleic acid concentration was determined by OD 260 nm (Smart-Spec, Bio-Rad Laboratories, Hercules, CA), and RNA integrity was evaluated using an Agilent 2100 bioanalyzer (Agilent Technologies, Foster City, CA). […]

[3] = system: Cyp1a2; test: Cyp1a2 mRNA in rat small intestine (jejunum); settings: data not shown
Experimental: as §1, §2

[4] = 30 and 100 mg/kg/day, data not shown

decline in Cmax after 5 days of dosing compared to the first day ([1]; 30 mg/kg/day, day 5 vs day 1): 88% | decrease in plasma AUC after 5 days of dosing ([1]; 30 mg/kg/day, day 5 vs day 1): 95% | decline in Cmax after 5 days of dosing compared to the first day ([1]; 100 mg/kg/day, day 5 vs day 1): 53% | decrease in plasma AUC after 5 days of dosing ([1]; 100 mg/kg/day, day 5 vs day 1): 80% | change in AUC after 5 days of dosing ([1]; 200 mg/kg/day, day 5 vs day 1): no change | change in Cmax after 5 days of dosing ([1]; 200 mg/kg/day, day 5 vs day 1): no change | change in Tmax after 5 days of dosing [1, 4]: decrease | change in t1/2 after 5 days of dosing [1, 4]: decrease | Cmax ([1]; male, Sprague-Dawley, plasma, 30 mg/kg): ~5 µM | Cyp1a1 mRNA increase in rat liver (microarray) ([2]; 5 days of dosing, in at least one animal starting at the 100 mg/kg dose): 10–100 fold | Cyp1a1 mRNA expression in rat liver (RT-PCR) ([2]; 5 days, all doses (30, 100, 200 mg/kg/day)): strongly induced | Cyp1a2 mRNA levels in rat jejunum [3]: unchanged
Structure (SMILES): N#Cc1cccc(-c2noc(-c3cccnc3)n2)c1 [A-998679, 3-(5-pyridin-3-yl-1,2,4-oxadiazol-3-yl) benzonitrile]

Reference: paper PMC3481155, “AhR activation underlies the CYP1A autoinduction by A-998679 in rats” (Frontiers in Genetics, 2012)
